# *1 amine or outer side, *2 acyl side, *3 side chain or, on linkers, in order; H or OH if unused. Where a SMILES comes first, the peptide text is derived from it. Bridges are numbered along the chain shown (N, C = ends). [ ]: non-standard residue; d: D form. The star is where a group is joined. NODAGA = O=C(O)CN1CCN(CC(=O)O)CCN(C(CCC(=O)*)C(=O)O)CC1; X1 = NC(=O)Nc1ccc(CC(N[*:1])C(=O)[*:2])cc1; Phe(4-Cl) = N[CH](Cc1ccc(Cl)cc1)C(=O)O
# Test: in vivo
# Details: athymic nude Foxn1^nu, mouse, total radioactivity
# Method: Unless otherwise specified, the in vivo studies were performed on athymic nude Foxn1^nu 4-6 weeks-old mice. Animals were injected in the shoulder with HEK-SST2 cells (10^7 cells/200 μL) suspended in PBS. The in vivo experiments were performed when tumors reached a volume between 100-500 mm. At the intervention, all mice were between 7 and 11 weeks old.
# The specificity study was performed parallel to pharmacokinetics studies. For this reason, NODAGA-LM3 was radiolabeled with ^64Cu.
# The specificity of [^64Cu]Cu-NODAGA-LM3 for SSTR2-expressing tissues was evaluated in HEK-SST2 xenograft mice through a blocking study. The mice were administered with 0.15 MBq of [^64Cu]Cu-NODAGA-LM3 co-injected with a 2000-fold excess of DOTA-LM3 as a blocking agent. The mice were sacrificed 4 hours post-injection, and the organs were collected. weighed, and counted in a gamma counter.
smiles,measurement,setting,value
"CC(O)C1NC(=O)C(CCCCN)NC(=O)C(Cc2ccc(NC(N)=O)cc2)NC(=O)C(Cc2ccc(O)cc2)NC(=O)C(NC(=O)C(Cc2ccc(Cl)cc2)NC(=O)CCC(C(=O)O)N2CCN(CC(=O)O)CCN(CC(=O)O)CC2)CSSCC(C(=O)NC(Cc2ccc(O)cc2)C(N)=O)NC1=O (centres unmarked) [[^61Cu]Cu-NODAGA-LM3, metal not drawn] ({NODAGA}-[Phe(4-Cl)]CY[X1]KTCY-NH2; disulfide 2-7; configuration not given here)",tissue uptake at 4 h,"0.15 MBq, Uptake Bone",0.39 ± 0.07 %ID/g
same,tissue uptake at 4 h,"0.15 MBq, Uptake Pancreas",0.55 ± 0.1 %ID/g
same,tissue uptake at 4 h,"0.15 MBq, Uptake Stomach",1.31 ± 0.55 %ID/g
same,tissue uptake at 4 h,"0.15 MBq, Uptake Tumor",37.9 ± 3.43 %ID/g
same,tissue uptake at 4 h,Uptake Blood,0.11 ± 0.05 %ID/g
same,tissue uptake at 4 h,Uptake Bone,0.01 ± 0.01 %ID/g
same,tissue uptake at 4 h,Uptake Heart,0.14 ± 0.07 %ID/g
same,tissue uptake at 4 h,Uptake Intestine,0.46 ± 0.01 %ID/g
same,tissue uptake at 4 h,Uptake Kidney,3.52 ± 0.93 %ID/g
same,tissue uptake at 4 h,Uptake Liver,0.96 ± 0.14 %ID/g
same,tissue uptake at 4 h,Uptake Lung,0.67 ± 0.25 %ID/g
same,tissue uptake at 4 h,Uptake Muscle,0.03 ± 0.01 %ID/g
same,tissue uptake at 4 h,Uptake Pancreas,0.12 ± 0.03 %ID/g
same,tissue uptake at 4 h,Uptake Spleen,0.21 ± 0.06 %ID/g
same,tissue uptake at 4 h,Uptake Stomach,0.43 ± 0.14 %ID/g
same,tissue uptake at 4 h,Uptake Tumor,0.52 ± 0.18 %ID/g
same,tissue uptake at 4 h,"female, iv, 0.15 MBq, Uptake Intestine",0.46 ± 0.04 %ID/g
same,tissue uptake at 4 h,"female, iv, 0.15 MBq, Uptake Kidney",4.41 ± 0.74 %ID/g
same,tissue uptake at 4 h,"female, iv, 0.15 MBq, Uptake Lung",0.6 ± 0.17 %ID/g
same,tissue uptake at 4 h,"female, iv, 0.15 MBq, Uptake Spleen",0.21 ± 0.1 %ID/g

# From US20260151517A1, “SOMATOSTATIN RECEPTOR-TARGETING RADIOPHARMACEUTICALS AND USES THEREOF” (Nuclidium AG, priority 2024, published 2026)
